Test results as given in the NIST ThermoML archive (doi:10.1021/je800463k).

Experiment: mn = molality of the nth substance listed, in mol/kg
Conditions: 101 kPa, Liquid; for mass density: Pycnometric method; for electrical conductivity / speed of sound / viscosity: 303.15 K; for electrical conductivity: Frequency=0.001 MHz, Alternating current cell with electrodes; for speed of sound: Frequency=2 MHz

[Mg+2].[O-][Cl+3]([O-])([O-])[O-].[O-][Cl+3]([O-])([O-])[O-] [magnesium perchlorate] + CO
Conditions	mass density [kg/m3]
301.65 K, m1 = 0.0925	796.87
302.7 K, m1 = 0.3228	824.56
302.75 K, m1 = 0.2872	820.44
302.75 K, m1 = 2	1006.5
302.9 K, m1 = 0.078	794.53
303.05 K, m1 = 0.1673	805.22
303.5 K, m1 = 0.4313	838.73
303.55 K, m1 = 1.059	918.43
303.55 K, m1 = 1.717	980.32
303.9 K, m1 = 0.0542	788.92
304.2 K, m1 = 0.0925	794.46
304.55 K, m1 = 1.395	955.29
304.85 K, m1 = 0.6444	864.55
305.45 K, m1 = 0.2872	817.88
305.5 K, m1 = 0.078	792.01
305.5 K, m1 = 0.3228	821.98
305.7 K, m1 = 0.1673	802.67
305.75 K, m1 = 1.059	916.49
305.95 K, m1 = 0.6444	863.6
306 K, m1 = 1.717	978.23
306.55 K, m1 = 0.4313	836.04
306.6 K, m1 = 0.0542	786.39
306.65 K, m1 = 2	1003.3
306.8 K, m1 = 0.0925	791.94
306.95 K, m1 = 1.395	953.22
307.15 K, m1 = 0.078	790.37
307.25 K, m1 = 0.2872	816.19
307.3 K, m1 = 0.3228	820.29
307.35 K, m1 = 0.1673	801.01
308 K, m1 = 1.059	914.51
308.05 K, m1 = 0.6444	861.75
308.35 K, m1 = 0.0542	784.7
308.45 K, m1 = 1.717	976.24
308.5 K, m1 = 0.4313	834.26
309.25 K, m1 = 2	1001.1
309.3 K, m1 = 1.395	951.18
309.35 K, m1 = 0.0925	789.49
309.7 K, m1 = 0.078	787.95
309.9 K, m1 = 0.2872	813.69
309.95 K, m1 = 0.3228	817.77
310.85 K, m1 = 1.717	974.13

Conditions	electrical conductivity [S/m]	speed of sound [m/s]	viscosity [mPa·s]
m1 = 0.0542	0.3785	1094.8	0.5431
m1 = 0.078	0.5625	1101.6	–
m1 = 0.0925	0.6223	1104.6	0.5669
m1 = 0.1673	0.9485	1114	0.6084
m1 = 0.2872	1.407	1129.8	0.684
m1 = 0.3228	1.534	1133.5	0.7005
m1 = 0.4313	1.913	1147	0.7937
m1 = 0.6444	2.541	1173.3	0.9348
m1 = 1.059	3.367	1217	1.323
m1 = 1.395	3.746	1253.3	1.732
m1 = 1.717	3.979	1277.6	1.99
m1 = 2	4.1	1301.6	2.362
